Measured values taken from patent publication US6525001B1, “Substituted pyrimidine and pyridine herbicides” (Mid-American Commercialization Corporation, priority 1997, dated 2003).

Legend:
Assay in all cases: Test B pre-/postemergence
Type in all cases: in vivo
Parameters in all cases: key: 0 is no effect; 10 is complete control
[1] = test system: bedstraw (Galium aparine)
Excerpt: (§1) Seeds of bedstraw (Galium aparine), blackgrass (Alopecurus myosuroides), broadleaf signalgrass (Brachiaria decumbens), cocklebur (Xanthium strumarium), corn (Zea mays), crabgrass (Digitaria sanguinalis), giant foxtail (Setaria faberii), lambsquarters (Chenopodium album), momingglory (Ipomoea hederacea), pigweed (Amaranthus retroflexus), rape (Brassica napus), soybean (Glycine max), sugar beet (Beta vulgaris), velvetleaf (Abutilon theophrasti), wheat (Triticum aestivum), wild oat (Avena fatua) and purple nutsedge (Cyperus rotundus) tubers were planted and treated preemergence with test chemicals formulated in a non-phytotoxic solvent mixture which included a surfactant.
(§2) At the same time, these crop and weed species were also treated with postemergence applications of test chemicals formulated in the same manner. Plants ranged in height from 2 to 18 cm (1- to 4-leaf stage) for postemergence treatments. Plant species in the flood test consisted of rice (Oryza sativa), smallflower flatsedge (Cyperus difformis), duck salad (Heteranthera limosa) and bamyardgrass (Echinochloa crus-galli) grown to the 2-leaf stage for testing. Treated plants and controls were maintained in a greenhouse for twelve to sixteen days, after which all species were compared to controls and visually evaluated. Plant response ratings, summarized in Table B, are based on a scale of 0 to 10 where 0 is no effect and 10 is complete control. A dash (−) response means no test result.

[2] = test system: blackgrass (Alopecurus myosuroides)
Excerpt: as §1, §2

[3] = test system: broadleaf signalgrass (Brachiaria decumbens)
Excerpt: as §1, §2

[4] = test system: cocklebur (Xanthium strumarium)
Excerpt: as §1, §2

corn (Zea mays) = test system: corn (Zea mays)
Excerpt: as §1, §2

[5] = test system: crabgrass (Digitaria sanguinalis)
Excerpt: as §1, §2

[6] = test system: giant foxtail (Setaria faberii)
Excerpt: as §1, §2

[7] = test system: momingglory (Ipomoea hederacea)
Excerpt: as §1, §2

[8] = test system: pigweed (Amaranthus retroflexus)
Excerpt: as §1, §2

[9] = test system: purple nutsedge (Cyperus rotundus)
Excerpt: as §1, §2

rape (Brassica napus) = test system: rape (Brassica napus)
Excerpt: as §1, §2

soybean (Glycine max) = test system: soybean (Glycine max)
Excerpt: as §1, §2

[10] = test system: sugar beet (Beta vulgaris)
Excerpt: as §1, §2

[11] = test system: velvetleaf (Abutilon theophrasti)
Excerpt: as §1, §2

[12] = test system: wheat (Triticum aestivum)
Excerpt: as §1, §2

wild oat (Avena fatua) = test system: wild oat (Avena fatua)
Excerpt: as §1, §2

Cc1cnc(-c2ccc(C(F)(F)F)cc2)nc1Cn1cnc(C(F)(F)F)n1 [Compound 11]
Plant response rating, Bedstraw ([1]; Rate 62 g/ha, Postemergence): 8
Bedstraw plant response rating ([1]; Rate 62 g/ha, Preemergence): 5
Plant response rating, Bedstraw ([1]; Rate 125 g/ha, Postemergence): 9
Bedstraw plant response rating ([1]; Rate 125 g/ha, Preemergence): 8
Plant response rating, Bedstraw ([1]; Rate 250 g/ha, Postemergence): 10
Plant response rating, Bedstraw ([1]; Rate 250 g/ha, Preemergence): 9
Plant response rating, Bedstraw ([1]; Rate 500 g/ha, Postemergence): 10
Plant response rating, Bedstraw ([1]; Rate 500 g/ha, Preemergence): 9
Plant response rating, Blackgrass ([2]; Rate 62 g/ha, Postemergence): 2
Blackgrass plant response rating ([2]; Rate 62 g/ha, Preemergence): 3
Plant response rating, Blackgrass ([2]; Rate 125 g/ha, Postemergence): 3
Blackgrass plant response rating ([2]; Rate 125 g/ha, Preemergence): 3
Plant response rating, Blackgrass ([2]; Rate 250 g/ha, Postemergence): 7
Plant response rating, Blackgrass ([2]; Rate 250 g/ha, Preemergence): 5
Plant response rating, Blackgrass ([2]; Rate 500 g/ha, Postemergence): 5
Plant response rating, Blackgrass ([2]; Rate 500 g/ha, Preemergence): 5
Plant response rating, B. signalgrass ([3]; Rate 62 g/ha, Postemergence): 3
B. signalgrass plant response rating ([3]; Rate 62 g/ha, Preemergence): 2
Plant response rating, B. signalgrass ([3]; Rate 125 g/ha, Postemergence): 3
B. signalgrass plant response rating ([3]; Rate 125 g/ha, Preemergence): 3
Plant response rating, B. signalgrass ([3]; Rate 250 g/ha, Postemergence): 4
Plant response rating, B. signalgrass ([3]; Rate 250 g/ha, Preemergence): 8
Plant response rating, B. signalgrass ([3]; Rate 500 g/ha, Postemergence): 7
Plant response rating, B. signalgrass ([3]; Rate 500 g/ha, Preemergence): 8
Plant response rating, Cocklebur ([4]; Rate 62 g/ha, Postemergence): 7
Cocklebur plant response rating ([4]; Rate 62 g/ha, Preemergence): 0
Plant response rating, Cocklebur ([4]; Rate 125 g/ha, Postemergence): 8
Plant response rating, Cocklebur ([4]; Rate 250 g/ha, Postemergence): 9
Plant response rating, Cocklebur ([4]; Rate 250 g/ha, Preemergence): 3
Plant response rating, Cocklebur ([4]; Rate 500 g/ha, Postemergence): 9
Plant response rating, Corn (corn (Zea mays); Rate 62 g/ha, Postemergence): 3
Corn plant response rating (corn (Zea mays); Rate 62 g/ha, Preemergence): 0
Plant response rating, Corn (corn (Zea mays); Rate 125 g/ha, Postemergence): 3
Corn plant response rating (corn (Zea mays); Rate 125 g/ha, Preemergence): 0
Plant response rating, Corn (corn (Zea mays); Rate 250 g/ha, Postemergence): 3
Plant response rating, Corn (corn (Zea mays); Rate 250 g/ha, Preemergence): 0
Plant response rating, Corn (corn (Zea mays); Rate 500 g/ha, Postemergence): 3
Plant response rating, Corn (corn (Zea mays); Rate 500 g/ha, Preemergence): 0
Plant response rating, Crabgrass ([5]; Rate 62 g/ha, Postemergence): 2
Crabgrass plant response rating ([5]; Rate 62 g/ha, Preemergence): 7
Plant response rating, Crabgrass ([5]; Rate 125 g/ha, Postemergence): 4
Crabgrass plant response rating ([5]; Rate 125 g/ha, Preemergence): 7
Plant response rating, Crabgrass ([5]; Rate 250 g/ha, Postemergence): 6
Plant response rating, Crabgrass ([5]; Rate 250 g/ha, Preemergence): 9
Plant response rating, Crabgrass ([5]; Rate 500 g/ha, Postemergence): 7
Plant response rating, Crabgrass ([5]; Rate 500 g/ha, Preemergence): 10
Plant response rating, Giant foxtail ([6]; Rate 62 g/ha, Postemergence): 2
Giant foxtail plant response rating ([6]; Rate 62 g/ha, Preemergence): 6
Plant response rating, Giant foxtail ([6]; Rate 125 g/ha, Postemergence): 4
Giant foxtail plant response rating ([6]; Rate 125 g/ha, Preemergence): 9
Plant response rating, Giant foxtail ([6]; Rate 250 g/ha, Postemergence): 5
Plant response rating, Giant foxtail ([6]; Rate 250 g/ha, Preemergence): 9
Plant response rating, Giant foxtail ([6]; Rate 500 g/ha, Postemergence): 9
Plant response rating, Giant foxtail ([6]; Rate 500 g/ha, Preemergence): 10
Plant response rating, Morningglory ([7]; Rate 62 g/ha, Postemergence): 7
Morningglory plant response rating ([7]; Rate 62 g/ha, Preemergence): 3
Plant response rating, Morningglory ([7]; Rate 125 g/ha, Postemergence): 10
Morningglory plant response rating ([7]; Rate 125 g/ha, Preemergence): 8
Plant response rating, Morningglory ([7]; Rate 250 g/ha, Postemergence): 10
Plant response rating, Morningglory ([7]; Rate 250 g/ha, Preemergence): 9
Plant response rating, Morningglory ([7]; Rate 500 g/ha, Preemergence): 10
Plant response rating, Redroot pigweed ([8]; Rate 62 g/ha, Postemergence): 9
Redroot pigweed plant response rating ([8]; Rate 62 g/ha, Preemergence): 9
Plant response rating, Redroot pigweed ([8]; Rate 125 g/ha, Postemergence): 10
Redroot pigweed plant response rating ([8]; Rate 125 g/ha, Preemergence): 9
Plant response rating, Redroot pigweed ([8]; Rate 250 g/ha, Postemergence): 10
Plant response rating, Redroot pigweed ([8]; Rate 250 g/ha, Preemergence): 10
Plant response rating, Redroot pigweed ([8]; Rate 500 g/ha, Postemergence): 10
Plant response rating, Redroot pigweed ([8]; Rate 500 g/ha, Preemergence): 10
Plant response rating, Nutsedge ([9]; Rate 62 g/ha, Postemergence): 1
Plant response rating, Nutsedge ([9]; Rate 125 g/ha, Postemergence): 1
Nutsedge plant response rating ([9]; Rate 125 g/ha, Preemergence): 0
Plant response rating, Nutsedge ([9]; Rate 250 g/ha, Postemergence): 1
Plant response rating, Nutsedge ([9]; Rate 250 g/ha, Preemergence): 0
Plant response rating, Nutsedge ([9]; Rate 500 g/ha, Preemergence): 1
Plant response rating, Rape (rape (Brassica napus); Rate 62 g/ha, Postemergence): 9
Rape plant response rating (rape (Brassica napus); Rate 62 g/ha, Preemergence): 9
Plant response rating, Rape (rape (Brassica napus); Rate 125 g/ha, Postemergence): 9
Rape plant response rating (rape (Brassica napus); Rate 125 g/ha, Preemergence): 9
Plant response rating, Rape (rape (Brassica napus); Rate 250 g/ha, Postemergence): 10
Plant response rating, Rape (rape (Brassica napus); Rate 250 g/ha, Preemergence): 10
Plant response rating, Rape (rape (Brassica napus); Rate 500 g/ha, Postemergence): 10
Plant response rating, Rape (rape (Brassica napus); Rate 500 g/ha, Preemergence): 10
Plant response rating, Soybean (soybean (Glycine max); Rate 62 g/ha, Postemergence): 5
Soybean plant response rating (soybean (Glycine max); Rate 62 g/ha, Preemergence): 1
Plant response rating, Soybean (soybean (Glycine max); Rate 125 g/ha, Postemergence): 7
Soybean plant response rating (soybean (Glycine max); Rate 125 g/ha, Preemergence): 1
Plant response rating, Soybean (soybean (Glycine max); Rate 250 g/ha, Postemergence): 8
Plant response rating, Soybean (soybean (Glycine max); Rate 250 g/ha, Preemergence): 1
Plant response rating, Soybean (soybean (Glycine max); Rate 500 g/ha, Postemergence): 9
Plant response rating, Soybean (soybean (Glycine max); Rate 500 g/ha, Preemergence): 2
Plant response rating, Sugarbeets ([10]; Rate 62 g/ha, Postemergence): 9
Sugarbeets plant response rating ([10]; Rate 62 g/ha, Preemergence): 10
Plant response rating, Sugarbeets ([10]; Rate 125 g/ha, Postemergence): 10
Sugarbeets plant response rating ([10]; Rate 125 g/ha, Preemergence): 10
Plant response rating, Sugarbeets ([10]; Rate 250 g/ha, Postemergence): 10
Plant response rating, Sugarbeets ([10]; Rate 250 g/ha, Preemergence): 10
Plant response rating, Sugarbeets ([10]; Rate 500 g/ha, Postemergence): 10
Plant response rating, Sugarbeets ([10]; Rate 500 g/ha, Preemergence): 10
Plant response rating, Velvetleaf ([11]; Rate 62 g/ha, Postemergence): 8
Velvetleaf plant response rating ([11]; Rate 62 g/ha, Preemergence): 3
Plant response rating, Velvetleaf ([11]; Rate 125 g/ha, Postemergence): 8
Velvetleaf plant response rating ([11]; Rate 125 g/ha, Preemergence): 6
Plant response rating, Velvetleaf ([11]; Rate 250 g/ha, Postemergence): 8
Plant response rating, Velvetleaf ([11]; Rate 250 g/ha, Preemergence): 8
Plant response rating, Velvetleaf ([11]; Rate 500 g/ha, Postemergence): 9
Plant response rating, Velvetleaf ([11]; Rate 500 g/ha, Preemergence): 10
Plant response rating, Wheat ([12]; Rate 62 g/ha, Postemergence): 2
Wheat plant response rating ([12]; Rate 62 g/ha, Preemergence): 0
Plant response rating, Wheat ([12]; Rate 125 g/ha, Postemergence): 2
Wheat plant response rating ([12]; Rate 125 g/ha, Preemergence): 1
Plant response rating, Wheat ([12]; Rate 250 g/ha, Postemergence): 3
Plant response rating, Wheat ([12]; Rate 250 g/ha, Preemergence): 1
Plant response rating, Wheat ([12]; Rate 500 g/ha, Postemergence): 3
Plant response rating, Wheat ([12]; Rate 500 g/ha, Preemergence): 3
Plant response rating, Wild oats (wild oat (Avena fatua); Rate 62 g/ha, Postemergence): 2
Wild oats plant response rating (wild oat (Avena fatua); Rate 62 g/ha, Preemergence): 2
Plant response rating, Wild oats (wild oat (Avena fatua); Rate 125 g/ha, Postemergence): 3
Wild oats plant response rating (wild oat (Avena fatua); Rate 125 g/ha, Preemergence): 4
Plant response rating, Wild oats (wild oat (Avena fatua); Rate 250 g/ha, Postemergence): 3
Plant response rating, Wild oats (wild oat (Avena fatua); Rate 250 g/ha, Preemergence): 4
Plant response rating, Wild oats (wild oat (Avena fatua); Rate 500 g/ha, Postemergence): 5
Plant response rating, Wild oats (wild oat (Avena fatua); Rate 500 g/ha, Preemergence): 6
